In data set [1] the test system is A549 cells, MLE-12 cells and 293T cells.
The next data set concerns 293T cells. The settings on record: same concentration, 24 h.
The test system of a further data set is SARS-CoV-2. In kind it is cell-based.
A further data set has as its target T1, PLpro (Severe acute respiratory syndrome coronavirus 2, UniProt P0DTD1).
T1 construct: expressed in transfected cells; host or cells: 293T cells
Briefly: cell-based. Set-up: species or system SARS-CoV-2.

Starred links: 1 amine or outer side, 2 acyl side, 3 side chain; linkers in the order of their positions; H or OH if unused. Non-standard residues stand in square brackets, D forms with d. Residues, ends and D or L forms follow the SMILES beside them. ξ: configuration not given here. *: point of attachment. X1 = Cc1ccc(N[*:1])cc1C(=O)[*:2]; X2 = C[C@@H](N*)c1cccc2ccccc12; X3 = S=c1nc(N*)[nH]c2nc[nH]c12; ξR = N=C(N)NCCCC(N)C(=O)O; ξL = CC(C)CC(N)C(=O)O; ξS = NC(CO)C(=O)O

The record followed here is patent publication US12220461B2, “Polypeptide-coupled small molecule compound and antiviral application thereof” (Guangzhou Medical University, priority 2023, dated 2025).

For orientation: IC50 means the concentration that gives 50% inhibition.

On to `Cc1ccc(N)cc1C(=O)N[C@H](C)c1cccc2ccccc12` [GRL0617, reference compound], for which, in data set [1], the “cytotoxicity (CCK8 cell viability)” value is recorded as “great cytotoxicity”.

On to `CC(C)CC(NC(=O)C(CCCNC(=N)N)NC(=O)C(N)CO)C(=O)NC(CCCNC(=N)N)C(=O)NCC(=O)NCC(=O)Nc1nc(=S)c2[nH]cnc2[nH]1` (centres unmarked) [RG-6] (H-SRLRGG-X3; configuration not given here), for which the “cytotoxicity (CCK8 cell viability)” value in the data set with 293T cells is recorded as “less cytotoxicity than 6-TG”. Besides, the “IC50 for inhibition of CPE induced by SARS-CoV-2” value in the data set with SARS-CoV-2 is listed as “lower than 6-TG”.

In the case of `Cc1ccc(NC(=O)CNC(=O)CNC(=O)C(CCCNC(=N)N)NC(=O)C(CC(C)C)NC(=O)C(CCCNC(=N)N)NC(=O)C(N)CO)cc1C(=O)N[C@H](C)c1cccc2ccccc12` (some centres unmarked) [RG-17] (H-[ξS][ξR][ξL][ξR]GG[X1]-X2), it took 13.7 µM to reach half-maximal inhibition on PLpro (IC50). Moreover, the “cytotoxicity (CCK8 cell viability)” value in data set [1] is “does not affect the cell growth”.
